Series [1] deals with T1, serine/threonine protein phosphatase type 5 (PaPP5), catalytic domain PaPP5c (Periplaneta americana, UniProt A0A3Q9NNI4).
T1 construct: gene PP5; catalytic domain of PP5 (167-489 amino acids, PP5c), His-tagged, expressed in E. coli; full-length GenBank AZT88974.1
T1 sequence (A0A3Q9NNI4 167-489): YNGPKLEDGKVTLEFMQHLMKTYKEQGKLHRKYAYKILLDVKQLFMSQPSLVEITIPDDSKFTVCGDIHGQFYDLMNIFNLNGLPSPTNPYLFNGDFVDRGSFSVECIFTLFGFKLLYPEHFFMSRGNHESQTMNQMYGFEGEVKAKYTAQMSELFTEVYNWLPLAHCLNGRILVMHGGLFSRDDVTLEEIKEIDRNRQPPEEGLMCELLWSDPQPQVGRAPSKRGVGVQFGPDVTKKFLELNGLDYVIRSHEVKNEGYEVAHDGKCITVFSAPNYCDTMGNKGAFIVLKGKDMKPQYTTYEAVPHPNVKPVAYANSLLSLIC
As to the kind of experiment: DiFMUP fluorescence phosphatase inhibition assay on purified recombinant PaPP5c. It is filed as biochemical.

Substrate in series [2]: Cc1cc(=O)oc2c(F)c(OP(=O)(O)O)c(F)cc12
Briefly: purified protein. To be noted: Mn2+ (MnCl2 in expression, dialysis and assay buffer).

From PMC7600710, “The Inhibition of Serine/Threonine Protein Phosphatase Type 5 Mediates Cantharidin Toxicity to Control Periplaneta americana (L.)” (Insects, 2020) come the findings set out here.

What is called IC50 is the concentration that inhibits the measured activity by half. Consider `C[C@@]12C(=O)OC(=O)[C@]1(C)[C@H]1CC[C@@H]2O1` [Cantharidin], for which the IC50 in series [1] was determined as 390 ± 40 nM. Same read-out and setting: for `O=C1OC(=O)[C@H]2[C@@H]1[C@@H]1CC[C@H]2O1` [Norcantharidin] the value was 1870 ± 230 nM.

B1: serine/threonine protein phosphatase type 5 (PaPP5), catalytic domain PaPP5c (Periplaneta americana) (protein)
chain: YNGPKLEDGKVTLEFMQHLMKTYKEQGKLHRKYAYKILLDVKQLFMSQPSLVEITIPDDSKFTVCGDIHGQFYDLMNIFNLNGLPSPTNPYLFNGDFVDRGSFSVECIFTLFGFKLLYPEHFFMSRGNHESQTMNQMYGFEGEVKAKYTAQMSELFTEVYNWLPLAHCLNGRILVMHGGLFSRDDVTLEEIKEIDRNRQPPEEGLMCELLWSDPQPQVGRAPSKRGVGVQFGPDVTKKFLELNGLDYVIRSHEVKNEGYEVAHDGKCITVFSAPNYCDTMGNKGAFIVLKGKDMKPQYTTYEAVPHPNVKPVAYANSLLSLIC
As a reminder, the Km is the substrate concentration at which the rate is half of its maximum. In the case of B1, the Km in series [2] stood at 144.10 ± 9.730 µM.
